Laboratory results taken from US6218398A, “Nocathiacin antibiotics” (Bristol-Myers Squibb Company, priority 1999, dated 2001).
In brackets after ≈: the same amount, converted by molar mass. Like-named read-outs stand apart in the source and are kept apart here. Values belong to the compound of their own block, whether it stands above or below them.

Legend:
[1] = tested on: Moraxella catarrhalis/β-lactamase positive A22344; experiment: MIC by conventional serial broth dilution assay; type: cell-based
[2] = tested on: Enterococcus avium A27456; experiment: MIC by conventional serial broth dilution assay; type: cell-based
[3] = tested on: Streptococcus pneumoniae/penicillin intermediate A27881; experiment: MIC by conventional serial broth dilution assay; type: cell-based
[4] = tested on: Enterococcus faecalis A20688; experiment: MIC by conventional serial broth dilution assay; type: cell-based
[5] = tested on: Gram-positive bacteria; experiment: in vitro activity against Gram-positive bacteria; type: cell-based; details: e.g. multiple drug resistant Enterococcus faecium
[6] = tested on: Staphylococcus haemolyticus A27298; experiment: MIC by conventional serial broth dilution assay; type: cell-based
[7] = tested on: Staphylococcus aureus/QC/ATCC#29213 A24407; experiment: MIC by conventional serial broth dilution assay; type: cell-based
[8] = tested on: Staphylococcus epidermidis A24548; experiment: MIC by conventional serial broth dilution assay; type: cell-based
[9] = tested on: Haemophilus influenzae/β-lactamase negative A20183; experiment: MIC by conventional serial broth dilution assay; type: cell-based
[10] = tested on: Streptococcus pneumoniae A9585; experiment: MIC by conventional serial broth dilution assay; type: cell-based
[11] = tested on: Haemophilus influenzae/β-lactamase negative A20191; experiment: MIC by conventional serial broth dilution assay; type: cell-based
[12] = tested on: Moraxella catarrhalis/β-lactamase positive A25409; experiment: MIC by conventional serial broth dilution assay; type: cell-based
[13] = tested on: Enterococcus faecalis A27519; experiment: MIC by conventional serial broth dilution assay; type: cell-based
[14] = tested on: Haemophilus influenzae/β-lactamase positive A21515; experiment: MIC by conventional serial broth dilution assay; type: cell-based
[15] = tested on: Enterococcus faecium A24885; experiment: MIC by conventional serial broth dilution assay; type: cell-based
[16] = tested on: Streptococcus pneumoniae/penicillin resistant A28272; experiment: MIC by conventional serial broth dilution assay; type: cell-based
[17] = tested on: Staphylococcus aureus/homo methicillin resistant A27223; experiment: MIC by conventional serial broth dilution assay; type: cell-based
[18] = tested on: Staphylococcus aureus/β-lactamase positive A15090; experiment: MIC by conventional serial broth dilution assay; type: cell-based
[19] = tested on: Enterococcus faecium/thiostrepton resistant (10 ug/ml) SC15829; experiment: MIC by conventional serial broth dilution assay; type: cell-based
[20] = tested on: Salmonella/RE A27208; experiment: MIC by conventional serial broth dilution assay; type: cell-based
[21] = tested on: Salmonella/WT A27207; experiment: MIC by conventional serial broth dilution assay; type: cell-based
[22] = tested on: Staphylococcus aureus/hetero methicillin resistant A27218; experiment: MIC by conventional serial broth dilution assay; type: cell-based
[23] = tested on: Staphylococcus aureus A9537; experiment: MIC by conventional serial broth dilution assay; type: cell-based
[24] = tested on: Bacillus subtilis A9506A; experiment: MIC by conventional serial broth dilution assay; type: cell-based
[25] = tested on: Salmonella enteritidis A9531; experiment: MIC by conventional serial broth dilution assay; type: cell-based; details: Salmonella enterica
[26] = tested on: Streptococcus pyogenes A9604; experiment: MIC by conventional serial broth dilution assay; type: cell-based
[27] = tested on: Micrococcus luteus A9852; experiment: MIC by conventional serial broth dilution assay; type: cell-based
[28] = tested on: Escherichia coli/AcrA::Kan A28901; experiment: MIC by conventional serial broth dilution assay; type: cell-based
[29] = tested on: Escherichia coli A22292; experiment: MIC by conventional serial broth dilution assay; type: cell-based
[30] = tested on: Escherichia coli A15119; experiment: MIC by conventional serial broth dilution assay; type: cell-based
[31] = tested on: Staphylococcus aureus A15090; experiment: systemic Staph. aureus infection model in mice; type: in vivo, female ICR mice infected with Staphylococcus aureus; details: subcutaneous
Protocol: Nocathiacin I was evaluated for antibiotic activity in vivo, in a systemic infection model using female ICR mice. The animals were infected IP with 6.5×10^6 CFU of an overnight culture of Staphylococcus aureus A15090 suspended in 7% mucin. Nocathiacin I was dissolved in a test formulation consisting of 10% DMSO, 5% Tween 80 and 85% water. The solution was administered subcutaneously at 100 mg/kg total dose (2×50 mg/kg doses at 1 and 4 hours post-infection). […] The PD50 of nocathiacin I was determined to be <6.25 mg/kg.

[32] = β-lactamase positive, read-out: MIC
[33] = β-lactamase negative, read-out: MIC

MIC [1, 32]: 0.06 mg/L (≈ 0.0474 µM) | MIC ([2]; read-out: MIC): 0.03 mg/L (≈ 0.0237 µM) | MIC ([3]; penicillin intermediate, read-out: MIC): ≤ 0.002 mg/L | MIC ([4]; A20688, + 50% calf serum, read-out: MIC): 0.25 mg/L | MIC ([4]; A20688, read-out: MIC): 0.03 mg/L (≈ 0.0237 µM) | MIC ([7]; ATCC29213, QC/ATCC#29213, read-out: MIC): 0.007 mg/L (≈ 0.00553 µM) | MIC ([8]; read-out: MIC): 0.007 mg/L (≈ 0.00553 µM) | MIC [9, 33]: > 64 mg/L | MIC ([10]; read-out: MIC): ≤ 0.002 mg/L | MIC [11, 33]: > 64 mg/L | MIC [12, 32]: 0.06 mg/L (≈ 0.0474 µM) | MIC ([13]; read-out: MIC): 0.03 mg/L (≈ 0.0237 µM) | MIC [14, 32]: > 64 mg/L | MIC ([15]; read-out: MIC): 0.03 mg/L (≈ 0.0237 µM) | MIC ([16]; penicillin resistant, read-out: MIC): ≤ 0.002 mg/L | MIC ([17]; homo methicillin resistant, read-out: MIC): 0.007 mg/L (≈ 0.00553 µM) | MIC ([18]; + 50% calf serum, read-out: MIC): 0.03 mg/L | MIC [18, 32]: 0.007 mg/L (≈ 0.00553 µM)
SMILES: C=C(NC(=O)c1csc(-c2nc3c(cc2O)-c2nc(cs2)C(=O)NC(C(C)O)C(=O)NC(=C(C)OC)c2nc(cs2)C(=O)NC2c4nc(cs4)C(=O)NC(COC(=O)c4c5c6c(cccc6n4O)COC(=O)C(O)C2OC5)c2nc-3cs2)n1)C(N)=O (stereo not shown) [Nocathiacin III]
inhibitory activity against Gram-positive bacteria [5]: inhibitory activity at the nanomolar level | MIC ([6]; read-out: MIC): 0.007 mg/L (≈ 0.00553 µM)

SMILES: C=C(NC(=O)c1csc(-c2nc3c(cc2O)-c2nc(cs2)C(=O)NC(C(C)O)C(=O)NC(=C(C)OC)c2nc(cs2)C(=O)NC2c4nc(cs4)C(=O)NC(COC(=O)c4[nH]c5cccc6c5c4COC2C(OC2CC(C)(O)C(N(C)C)C(C)O2)C(=O)OC6)c2nc-3cs2)n1)C(N)=O (stereo not shown) [Nocathiacin II]
MIC [19]: 0.5 mg/L (≈ 0.352 µM) | MIC [1]: 0.125 mg/L (≈ 0.0879 µM) | MIC [2]: 0.5 mg/L (≈ 0.352 µM) | MIC [20]: > 128 mg/L | MIC [3]: 0.015 mg/L (≈ 0.0106 µM) | MIC [21]: > 128 mg/L | MIC ([22]; + 50% calf serum): 0.5 mg/L | MIC ([22]; hetero methicillin resistant): 0.5 mg/L (≈ 0.352 µM) | MIC ([4]; A20688): 0.5 mg/L (≈ 0.352 µM) | MIC ([4]; A20688, + 50% calf serum): 0.5 mg/L | MIC [23]: 0.06 mg/L (≈ 0.0422 µM) | inhibitory activity against Gram-positive bacteria [5]: inhibitory activity at the nanomolar level | MIC [6]: 0.25 mg/L (≈ 0.176 µM) | MIC [24]: 0.125 mg/L (≈ 0.0879 µM) | MIC ([7]; ATCC29213): 0.5 mg/L (≈ 0.352 µM) | MIC [25]: > 128 mg/L | MIC [8]: 0.125 mg/L (≈ 0.0879 µM) | MIC [10]: 0.015 mg/L (≈ 0.0106 µM) | MIC [12]: 0.125 mg/L (≈ 0.0879 µM) | MIC [13]: 0.5 mg/L (≈ 0.352 µM) | MIC [26]: 0.125 mg/L (≈ 0.0879 µM) | MIC [27]: 0.125 mg/L (≈ 0.0879 µM) | MIC [28]: > 128 mg/L | MIC [15]: 0.5 mg/L (≈ 0.352 µM) | MIC [16]: 0.015 mg/L (≈ 0.0106 µM) | MIC [29]: > 128 mg/L | MIC [30]: > 128 mg/L | MIC ([17]; + 50% calf serum): 0.125 mg/L | MIC ([17]; homo methicillin resistant): 0.125 mg/L (≈ 0.0879 µM) | MIC ([18]; + 50% calf serum): 0.5 mg/L | MIC ([18]; β-lactamase positive): 0.5 mg/L (≈ 0.352 µM)

SMILES: C=C(NC(=O)c1csc(-c2nc3c(cc2O)-c2nc(cs2)C(=O)NC(C(C)O)C(=O)NC(=C(C)OC)c2nc(cs2)C(=O)NC2c4nc(cs4)C(=O)NC(COC(=O)c4c5c6c(cccc6n4O)COC(=O)C(OC4CC(C)(O)C(N(C)C)C(C)O4)C2OC5)c2nc-3cs2)n1)C(N)=O (stereo not shown) [Nocathiacin I]
MIC [19]: 0.125 mg/L (≈ 0.087 µM) | MIC [1]: 0.06 mg/L (≈ 0.0417 µM) | MIC [2]: 0.015 mg/L (≈ 0.0104 µM) | MIC [20]: > 128 mg/L | MIC [3]: 0.001 mg/L (≈ 0.000696 µM) | MIC [21]: > 128 mg/L | MIC ([22]; + 50% calf serum): 0.007 mg/L | MIC ([22]; hetero methicillin resistant): 0.003 mg/L (≈ 0.00209 µM) | MIC ([4]; A20688): 0.03 mg/L (≈ 0.0209 µM) | MIC ([4]; A20688, + 50% calf serum): 0.25 mg/L | MIC [23]: 0.001 mg/L (≈ 0.000696 µM) | inhibitory activity against Gram-positive bacteria [5]: inhibitory activity at the nanomolar level | MIC [6]: 0.03 mg/L (≈ 0.0209 µM) | MIC [24]: 0.001 mg/L (≈ 0.000696 µM) | MIC ([7]; ATCC29213): 0.007 mg/L (≈ 0.00487 µM) | MIC [25]: > 128 mg/L | MIC [8]: 0.003 mg/L (≈ 0.00209 µM) | MIC [9]: > 128 mg/L | MIC [10]: 0.001 mg/L (≈ 0.000696 µM) | MIC [11]: > 128 mg/L | MIC [12]: 0.06 mg/L (≈ 0.0417 µM) | MIC [13]: 0.03 mg/L (≈ 0.0209 µM) | ED50 ([31]; Staphylococcus aureus, A15090, sc, systemic infection model, female ICR mice, read-out: PD50): < 6.25 mg/kg | signs of toxicity ([31]; 100 mg/kg total dose (2×50 mg/kg at 1 and 4 hours post-infection)): no signs of toxicity | animals survived the duration of the experiment ([31]; 100 mg/kg total dose (2×50 mg/kg at 1 and 4 hours post-infection), IP infection 6.5×10^6 CFU): Nine out of nine | MIC [26]: 0.001 mg/L (≈ 0.000696 µM) | MIC [27]: 0.003 mg/L (≈ 0.00209 µM) | MIC [28]: > 128 mg/L | MIC [14]: > 128 mg/L | MIC [15]: 0.015 mg/L (≈ 0.0104 µM) | MIC [16]: 0.001 mg/L (≈ 0.000696 µM) | MIC [29]: > 128 mg/L | MIC [30]: > 128 mg/L | MIC ([17]; + 50% calf serum): 0.001 mg/L | MIC ([17]; homo methicillin resistant): 0.003 mg/L (≈ 0.00209 µM) | MIC ([18]; + 50% calf serum): 0.015 mg/L | MIC ([18]; β-lactamase positive): 0.007 mg/L (≈ 0.00487 µM)
